Experimental data published in ChEMBL document CHEMBL5625219, “Design, synthesis fusidic acid derivatives alleviate acute lung injury via inhibiting MAPK/NF-κB/NLRP3 pathway” (Eur J Med Chem, 2023).
Active and inactive are the calls of the source.

Key:
Type in all cases: functional, organism-based
Conditions in all cases: time 3.0 day
[1] = system: Mus musculus; assay: (§1) Anti-inflammatory activity in LPS-induced BALB/c mouse model of […] assessed as inhibition of LPS-induced increase in lung W/D ratio at 10 mg/kg, po preadministered with compound for 3 days followed by LPS stimulation for 6 hrs after 1 hrs compound administration on day 3
[2] = system: Mus musculus; assay: (§2) In vivo inhibition of NFkappaB activation in LPS-induced BALB/c mouse model of […] assessed as inhibition of NFkappaB degradation at 10 mg/kg, po preadministered with compound for 3 days followed by LPS stimulation for 6 hrs after 1 hrs compound administration on day 3 by Western blot analysis
[3] = system: Mus musculus; assay: as §1, with “increase in TNF-alpha expression in BALF at 10” for “increase in lung W/D ratio at 10”, “day 3 by ELISA” for “day 3”
[4] = system: Mus musculus; assay: as §2, with “inhibition of IkappaBalpha degradation at” for “inhibition of NFkappaB degradation at”
[5] = system: Mus musculus; assay: as §1, with “increase in TNF-alpha expression in serum at 10” for “increase in lung W/D ratio at 10”, “day 3 by ELISA” for “day 3”
[6] = system: Mus musculus; assay: as §1, with “increase in IL-6 expression in serum at 10” for “increase in lung W/D ratio at 10”, “day 3 by ELISA” for “day 3”
[7] = system: Mus musculus; assay: as §1, with “increase in NO production in BALF at 10” for “increase in lung W/D ratio at 10”, “day 3 by Griess reagent based method” for “day 3”
[8] = system: Mus musculus; assay: (§3) Anti-inflammatory activity in LPS-induced BALB/c mouse model of […] assessed as attenuation of inflammatory cell infiltration in lungs at 10 mg/kg, po preadministered with compound for 3 days followed by LPS stimulation for 6 hrs after 1 hrs compound administration on day 3 by H&E staining based analysis
[9] = system: Mus musculus; assay: as §1, with “increase in NO production in serum at 10” for “increase in lung W/D ratio at 10”, “day 3 by Griess reagent based method” for “day 3”
[10] = system: Mus musculus; assay: as §1, with “increase in IL-6 expression in BALF at 10” for “increase in lung W/D ratio at 10”, “day 3 by ELISA” for “day 3”
[11] = system: Mus musculus; assay: as §3, with “lung alveolar hemorrhage” for “inflammatory cell infiltration in lungs”

Cc1ccc(-c2cc(C(F)(F)F)nn2-c2ccc(S(N)(=O)=O)cc2)cc1
active: Activity [1] | inhibition [2] | Activity [3] | inhibition [4] | Activity [5] | Activity [6] | Activity [7] | Activity [8] | Activity [9] | Activity [10] | Activity [11]
